From ChEMBL document CHEMBL1201862, “PubChem BioAssay data set” (2004)
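Method: 48-hour compound exposure of cells in 96-well plates, five concentrations, linear interpolation of endpoints. The concentration for 50% growth inhibition is given as GI50.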 Active and inactive are the calls of the source. No stated cut-off is given here; in the data, active = GI50 up to about 1.1 µM and inactive = higher.

Columns and labels:
Assay in all cases: DTP human tumour cell line panel, 48 h
SW-620 = test system: SW-620
OVCAR-8 = test system: OVCAR-8
COLO 205 = test system: COLO 205
UACC-62 = test system: UACC-62
A549 = test system: A549
M14 = test system: M14
CAKI-1 = test system: CAKI-1
SN12C = test system: SN12C
Hs-578T = test system: Hs-578T
PC-3 = test system: PC-3
HCT-116 = test system: HCT-116
HCC 2998 = test system: HCC 2998
HT-29 = test system: HT-29
RPMI-8226 = test system: RPMI-8226
ACHN = test system: ACHN
OVCAR-3 = test system: OVCAR-3
HOP-92 = test system: HOP-92
A498 = test system: A498
SK-MEL-5 = test system: SK-MEL-5
CCRF-CEM = test system: CCRF-CEM
SF-539 = test system: SF-539
SR = test system: SR
EKVX = test system: EKVX
U-251 = test system: U-251
MCF7 = test system: MCF7
HCT-15 = test system: HCT-15
SK-OV-3 = test system: SK-OV-3
NCI-H23 = test system: NCI-H23
DU-145 = test system: DU-145
TK-10 = test system: TK-10
T47D = test system: T47D
Malme-3M = test system: Malme-3M
SK-MEL-28 = test system: SK-MEL-28
MDA-MB-231 = test system: MDA-MB-231
MOLT-4 = test system: MOLT-4
NCI/ADR-RES = test system: NCI/ADR-RES
OVCAR-4 = test system: OVCAR-4
786-0 = test system: 786-0
SF-268 = test system: SF-268
MDA-MB-435 = test system: MDA-MB-435
SNB-75 = test system: SNB-75
HL-60 = test system: HL-60
MDA-N = test system: MDA-N
IGROV-1 = test system: IGROV-1
K562 = test system: K562
NCI-H522 = test system: NCI-H522
HOP-62 = test system: HOP-62
SNB-19 = test system: SNB-19
BT-549 = test system: BT-549
KM12 = test system: KM12
UACC-257 = test system: UACC-257
LOX IMVI = test system: LOX IMVI
OVCAR-5 = test system: OVCAR-5
SF-295 = test system: SF-295
RXF 393 = test system: RXF 393
NCI-H226 = test system: NCI-H226
UO-31 = test system: UO-31
NCI-H460 = test system: NCI-H460
SK-MEL-2 = test system: SK-MEL-2

## COC(=O)[C@]1(C)CCCC2(C)C3=C(CCC21)CC1(CC3)SCCS1 (some centres undefined)
SW-620
  GI50: > 10 µM (inactive)
OVCAR-8
  GI50: > 10 µM (inactive)
COLO 205
  GI50: > 10 µM (inactive)
UACC-62
  GI50: > 10 µM (inactive)
A549
  GI50: > 10 µM (inactive)
M14
  GI50: > 10 µM (inactive)
CAKI-1
  GI50: > 10 µM (inactive)
SN12C
  GI50: > 10 µM (inactive)
Hs-578T
  GI50: > 10 µM (inactive)
PC-3
  GI50: > 10 µM (inactive)
HCT-116
  GI50: > 10 µM (inactive)
HCC 2998
  GI50: > 10 µM (inactive)
HT-29
  GI50: > 10 µM (inactive)
RPMI-8226
  GI50: > 10 µM (inactive)
ACHN
  GI50: > 10 µM (inactive)
OVCAR-3
  GI50: > 10 µM (inactive)
HOP-92
  GI50: > 10 µM (inactive)
A498
  GI50: > 10 µM (inactive)
SK-MEL-5
  GI50: > 10 µM (inactive)
CCRF-CEM
  GI50: > 10 µM (inactive)
SF-539
  GI50: > 10 µM (inactive)
SR
  GI50: > 10 µM (inactive)
EKVX
  GI50: > 10 µM (inactive)
U-251
  GI50: > 10 µM (inactive)
MCF7
  GI50: > 10 µM (inactive)
HCT-15
  GI50: > 10 µM
SK-OV-3
  GI50: > 10 µM (inactive)
NCI-H23
  GI50: > 10 µM (inactive)
DU-145
  GI50: > 10 µM (inactive)
TK-10
  GI50: > 10 µM (inactive)
T47D
  GI50: > 10 µM (inactive)
Malme-3M
  GI50: > 10 µM (inactive)
SK-MEL-28
  GI50: > 10 µM (inactive)
MDA-MB-231
  GI50: > 10 µM (inactive)
MOLT-4
  GI50: > 10 µM (inactive)
NCI/ADR-RES
  GI50: > 10 µM (inactive)
OVCAR-4
  GI50: > 10 µM (inactive)
786-0
  GI50: > 10 µM (inactive)
SF-268
  GI50: > 10 µM (inactive)
MDA-MB-435
  GI50: > 10 µM (inactive)
SNB-75
  GI50: > 10 µM (inactive)
HL-60
  GI50: > 10 µM (inactive)
MDA-N
  GI50: > 10 µM (inactive)
IGROV-1
  GI50: > 10 µM (inactive)
K562
  GI50: > 10 µM (inactive)
NCI-H522
  GI50: > 10 µM (inactive)
HOP-62
  GI50: > 10 µM (inactive)
SNB-19
  GI50: > 10 µM (inactive)
BT-549
  GI50: > 10 µM (inactive)
KM12
  GI50: > 10 µM (inactive)
UACC-257
  GI50: > 10 µM (inactive)

## CN(C)c1ccc(C(c2ccc(N(C)C)cc2)c2ccc([N+](=O)[O-])cc2)cc1
SW-620
  GI50: > 100 µM (inactive)
OVCAR-8
  GI50: > 100 µM (inactive)
LOX IMVI
  GI50: > 100 µM (inactive)
COLO 205
  GI50: > 100 µM (inactive)
OVCAR-5
  GI50: > 100 µM (inactive)
UACC-62
  GI50: > 100 µM (inactive)
A549
  GI50: > 100 µM (inactive)
M14
  GI50: > 100 µM (inactive)
CAKI-1
  GI50: > 100 µM (inactive)
SN12C
  GI50: > 100 µM (inactive)
Hs-578T
  GI50: > 100 µM (inactive)
PC-3
  GI50: > 100 µM (inactive)
HCT-116
  GI50: > 100 µM (inactive)
SF-295
  GI50: > 100 µM (inactive)
HCC 2998
  GI50: > 100 µM (inactive)
HT-29
  GI50: > 100 µM (inactive)
RPMI-8226
  GI50: 15.1 µM (inactive)
ACHN
  GI50: > 100 µM (inactive)
OVCAR-3
  GI50: > 100 µM (inactive)
HOP-92
  GI50: > 100 µM (inactive)
A498
  GI50: > 100 µM (inactive)
SK-MEL-5
  GI50: > 100 µM (inactive)
CCRF-CEM
  GI50: > 100 µM (inactive)
SF-539
  GI50: > 100 µM (inactive)
SR
  GI50: 90.6 µM (inactive)
EKVX
  GI50: > 100 µM (inactive)
U-251
  GI50: > 100 µM (inactive)
MCF7
  GI50: > 100 µM (inactive)
HCT-15
  GI50: > 100 µM
SK-OV-3
  GI50: > 100 µM (inactive)
NCI-H23
  GI50: > 100 µM (inactive)
DU-145
  GI50: > 100 µM (inactive)
TK-10
  GI50: > 100 µM (inactive)
T47D
  GI50: > 100 µM (inactive)
Malme-3M
  GI50: > 100 µM (inactive)
RXF 393
  GI50: > 100 µM (inactive)
SK-MEL-28
  GI50: > 100 µM (inactive)
MDA-MB-231
  GI50: > 100 µM (inactive)
NCI-H226
  GI50: > 100 µM (inactive)
MOLT-4
  GI50: > 100 µM (inactive)
UO-31
  GI50: > 100 µM (inactive)
NCI/ADR-RES
  GI50: > 100 µM (inactive)
OVCAR-4
  GI50: > 100 µM (inactive)
786-0
  GI50: > 100 µM (inactive)
SF-268
  GI50: > 100 µM (inactive)
MDA-MB-435
  GI50: > 100 µM (inactive)
NCI-H460
  GI50: > 100 µM (inactive)
HL-60
  GI50: 23.9 µM (inactive)
MDA-N
  GI50: > 100 µM (inactive)
SK-MEL-2
  GI50: > 100 µM (inactive)
IGROV-1
  GI50: > 100 µM (inactive)
K562
  GI50: > 100 µM (inactive)
NCI-H522
  GI50: > 100 µM (inactive)
HOP-62
  GI50: > 100 µM (inactive)
SNB-19
  GI50: > 100 µM (inactive)
BT-549
  GI50: > 100 µM (inactive)
KM12
  GI50: > 100 µM (inactive)
UACC-257
  GI50: > 100 µM (inactive)
